Literature values, collected in US12168056B2, “Scintillator nanocrystal-containing compositions and methods for their use” (The Regents of the University of California, priority 2013, dated 2024).

System: human glioblastoma (GBM) cells

COc1cccc2c1C(=O)c1c(O)c3c(c(O)c1C2=O)C[C@@](O)(C(=O)CO)C[C@@H]3O[C@H]1C[C@H](N)[C@H](O)[C@H](C)O1 [Dox, doxorubicin]
suppression of GBM cells in culture: potently suppresses
